Source: US6358884B1, “Bacteriocidal and fungicidal solution containing inorganic silver complex salt and process for producing the same” (Sumitomo Metal Mining Co., Ltd., priority 1997, dated 2002)

Columns and labels:
Staphylococcus aureus = assay: Bacteriocidal test for Staphylococcus aureus (sprayed filter paper, plate culture); format: cell-based
Protocol: Using the same aqueous solution containing silver as the chloro complex salt as in Example 1 above a bacteriocidal effect to Staphylococcus aureus was evaluated. As a comparison, a bacteriocidal test was conducted in the same manner by using a sterilizing ethanol as a bacteriocidal agent instead of the aqueous solution described above. The evaluation method is as shown below.
Each of the test specimen solutions was sprayed each about by 1 g as the bacteriocidal agent do so as to be substantially uniform by using a spray on 5A filter paper of 11 cm diameter and then each filter paper was left in a room with no air conditioning facility at a room temperature for 24 hours. Subsequently, a bacteria solution adjusted to a cell number of 7×10^4 N/ml by a preliminary test was dropped each by 1 ml by using a micro-pipette to each filter paper and further left in a room with no air conditioning facility at a room temperature for 24 hours.
Then, each filter paper was transferred to a sterilized cup, and vigorously shaken for 2 min by a shaker with addition of 100 ml of water. Subsequently, 1 ml of a test solution was sampled from each of sterilized cups, subjected to plate culture at 36° C. for 72 hours each with addition of ordinary agar culture medium, and the number of colonies formed was counted.
Further as a blank test, 1 ml of a solution diluted by 100 times from the bacterial solution described above (the number of cells about 7×10^4 N/ml) was sampled to a Shale without using the bacteriocidal agent, cultivated in the same manner as described above with addition of a usual agar medium, and the number of formed colonies was counted.

bacteria = conditions: according to "Metal", vol. 65 (1995), No. 11; cited from earlier work
fungi = conditions: according to "Metal", vol. 65 (1995), No. 11; cited from earlier work

Compound	Number of cells in Shale (Staphylococcus aureus; about 1 g sprayed on filter paper, 1 ml bacteria solution 7×10^4 N/ml, 24 h, plate culture 36° C. 72 hours)	colonies in the Shale (Staphylococcus aureus; cultivation time of 48 hours)	Number of cells per filter paper (Staphylococcus aureus; per filter paper (1 ml of bacterial solution), plate culture 36° C. 72 hours)	Increase/decrease ratio for Number of cell (Staphylococcus aureus; ratio to the number of cells dropped to filter paper (7×10^4 N/ml), 72 hours cultivation) [%]	concentration showing slow releasing bacteriocidal effect (bacteria) [mg/L]	concentration showing slow releasing fungicidal effect (fungi) [mg/L]
CCO [Sterilizing ethanol, ethanol]	507	colonies were already formed	5.1 × 10^4	72.9	–	–
silver ions	–	–	–	–	≥ 0.05	≥ 0.5
